Drawing on patent US10376593B2, “Glycoconjugates and their use as potential vaccines against infection by Shigella flexneri” (INSTITUT PASTEUR, priority 2012, dated 2019), this text covers IC50 for 3 molecules.

Where only a bound is given, the exact number is not on record here.

The experiment addresses mIgG A22-4′ (anti-S. flexneri serotype 6 LPS monoclonal antibody) binding to SF6 LPS. The experiment in a line: Inhibition ELISA: binding of mIgG A22-4′ to synthetic oligosaccharides (inhibition of mIgG binding to SF6 LPS). Also on record: species or system mouse. The settings on record: concentration of oligosaccharide required to inhibit 50% of mIgG A22-4′ (0.025 μg/ml) binding to purified SF6 LPS (strain Sc544); oligosaccharides tested as propyl glycoside; max 2.5 mM; ≤ = inferior to but close to the value. As for the experimental part: 2) ELISA for IC50 Measurements
The binding of the available mIgG A22-4′ to the synthetic oligosaccharides was measured as previously described (Phalipon A. et al (J. Immunol. 176 1686 (2006)). Briefly, the mIgG concentration to be used was defined in the first step. To do so, a standard curve was established for mIgG A22-4′. The mIgG was incubated at different concentrations, overnight at 4° C., on microtiter plates coated with SF6 LPS purified from the strain SF6 Sc544 at a concentration of […] in a carbonate buffer (pH 9.6), then with PBS-BSA 1% for 30 min at 4° C. After washing with PBS-Tween 20 (0.05%), alkaline phosphatase conjugated anti-mouse IgG was added at a dilution of 1/5,000 (Sigma-Aldrich) for 1 h at 37° C. After washing with PBS-Tween 20 (0.05%), the substrate was added (12 mg of p-nitrophenyl phosphate in 1.2 mL of 1 M Tris-HCl buffer (pH 8.8) and 10.8 mL of 5 M NaCl). Once the color developed, the plate was read at 405 nm Dynatech MR400 microplate reader). A standard curve OD=f([Ab]) was fitted to the quadratic equation Y=aX2+bX+c, where Y is the OD and X is the Ab concentration. A correlation factor (r^2) of 0.99 was routinely obtained. The mIgG A22-4′ concentration to be used in the second step for measuring the IC50, which is defined as the concentration of oligosaccharides required to inhibit 50% of mIgG binding to LPS, was chosen as follows. It corresponds to the minimal concentration of mAb which gives the maximal OD on the standard curve.
The maximum concentration tested was 2.5 mM for all oligosaccharides. Then, measurement of unbound mIgG was performed as described above using microtiter plates coated with purified SF6 LPS. The mAb concentration was deduced from the standard curve. A 100% unbound mIgG concentration was defined for the mAb incubated in the same conditions but without any oligosaccharide. […]
The binding of mIgG A22-4′ to the synthetic and oligo- or polysaccharides was evaluated in inhibition ELISA (Table B)
In the case of `CCCO[C@@H]1O[C@@H](C)[C@H](O)[C@@H](OC(C)=O)[C@H]1O[C@@H]1O[C@H](CO)[C@H](O)[C@H](O[C@@H]2O[C@H](C(=O)O)[C@H](O[C@@H]3O[C@@H](C)[C@H](O)[C@@H](O)[C@H]3O[C@@H]3O[C@@H](C)[C@H](O)[C@@H](OC(C)=O)[C@H]3O)[C@H](O)[C@H]2O)[C@H]1NC(C)=O` [AcCDABAcC, Propyl 3-O-acetyl-α-L-rhamnopyranosyl-(1→2)-α-L-rhamnopyranosyl-(1→4)-β-D-galactopyranosyluronic acid-(1→3)-2-acetamido-2-deoxy-β-D-galactopyranosyl-(1→2)-3-O-acetyl-α-L-rhamnopyranoside], the IC50 (usually the concentration that inhibits the measured activity by half) is at most 500 µM.
With `CCCO[C@@H]1O[C@H](CO)[C@H](O)[C@H](O[C@@H]2O[C@H](C(=O)O)[C@H](O[C@@H]3O[C@@H](C)[C@H](O)[C@@H](O)[C@H]3O[C@@H]3O[C@@H](C)[C@H](O)[C@@H](OC(C)=O)[C@H]3O)[C@H](O)[C@H]2O)[C@H]1NC(C)=O` [AcCDAB, Propyl 3-O-acetyl-α-L-rhamnopyranosyl-(1→2)-α-L-rhamnopyranosyl-(1→4)-β-D-galactopyranosyluronic acid-(1→3)-2-acetamido-2-deoxy-β-D-galactopyranoside], the IC50 is 36 µM.
The result for `CCCO[C@@H]1O[C@H](CO)[C@H](O)[C@H](O[C@@H]2O[C@H](C(=O)O)[C@H](O[C@@H]3O[C@@H](C)[C@H](O)[C@@H](O)[C@H]3O[C@@H]3O[C@@H](C)[C@H](O)[C@@H](O)[C@H]3O)[C@H](O)[C@H]2O)[C@H]1NC(C)=O` [CDAB, Propyl α-L-rhamnopyranosyl-(1→2)-α-L-rhamnopyranosyl-(1→4)-β-D-galactopyranosyluronic acid-(1→3)-2-acetamido-2-deoxy-β-D-galactopyranoside] reads 16 µM.
